Several values for one entry are separate records, joined by “and”; a condition that tells them apart may be missing. Identical values can stand only once.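 How tested: cells in 96-well plates exposed to compound for 48 hours at five concentrations. Here, GI50 denotes the concentration required for 50% inhibition of growth. Definition used: TGI = concentration required for complete inhibition of growth.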
Columns and labels:
Assay in all cases: DTP human tumour cell line panel, 48 h
[1] = tested on: DMS 273 small cell lung
[2] = tested on: HOP-18 NSCLC
[3] = tested on: KM12 colon
[4] = tested on: LXFL 529 NSCLC
[5] = tested on: M14 melanoma
[6] = tested on: MOLT-4 leukemia
[7] = tested on: RPMI-8226 leukemia
[8] = tested on: HS 578T breast
[9] = tested on: T-47D breast

| Structure (SMILES) | TGI [1] | TGI [2] | TGI [3] | TGI [4] | TGI [5] | TGI [6] | TGI [7] | TGI [8] | TGI [9] | GI50 [8] | GI50 [3] | GI50 [5] | GI50 [6] | GI50 [7] | GI50 [9] |
| --- | --- | --- | --- | --- | --- | --- | --- | --- | --- | --- | --- | --- | --- | --- | --- |
| COC(=O)C(=O)C(C(=O)C=C(C)C)C(=O)C(=O)Nc1ccc(C)cc1C (configuration not stated) | > 100 µM | > 100 µM | > 100 µM | > 100 µM | > 100 µM | > 100 µM | > 100 µM | – | – | – | – | – | – | – | – |
| CC(C)CCCC(=O)CCCCCCC(=O)CCN(O)C(=O)C(N)CO (configuration not stated) | – | – | 35.9 µM | – | 61.5 µM | > 100 µM | 57.5 µM | 68.8 µM | 34.8 µM | – | – | – | – | – | – |
| CON(C)C(=O)N1N=C(c2cc(F)ccc2F)SC1(CCCN)c1ccccc1 (configuration not stated) | – | – | 13.5 µM and 12.9 µM | – | 11.2 µM and 4.38 µM | 20 µM and 18.2 µM | 11 µM and 9.04 µM | 17.4 µM and 21.8 µM | 18.7 µM and 18.2 µM | 0.0555 µM and < 0.01 µM | 0.028 µM and < 0.01 µM | < 0.01 µM | 0.0547 µM and < 0.01 µM | 0.0131 µM and < 0.01 µM | 0.0279 µM and < 0.01 µM |
| CSc1nc2cc(S(=O)(=O)N3CCCCC3)ccc2s1 | – | – | > 100 µM | – | > 100 µM | > 100 µM | > 100 µM | > 100 µM | > 100 µM | – | – | – | – | – | – |
| CC(C)c1ccc(C(c2ccc(OCC(=O)O)cc2)c2ccc(C(C)C)cc(=O)c2O)c(O)c(=O)c1 | 11.2 µM | 55.6 µM | – | > 100 µM | 11 µM | 30.7 µM | 47 µM | – | – | – | – | – | – | – | – |
| CC[C@H](C)[C@H]1O[C@]2(C=C[C@@H]1C)C[C@@H]1C[C@@H](C/C=C(\C)[C@@H](O[C@H]3C[C@H](OC)[C@@H](O[C@H]4C[C@H](OC)[C@@H](NC)[C@H](C)O4)[C@H](C)O3)[C@@H](C)/C=C/C=C3\CO[C@@H]4[C@H](O)C(C)=C[C@@H](C(=O)O1)[C@]34O)O2 | – | – | 11.4 µM | – | 3.98 µM | 4.48 µM | 13.6 µM | 6.56 µM | 16.8 µM | 2.31 µM | 3.1 µM | 1.93 µM | 1.81 µM | 3.32 µM | 4.4 µM |
| COc1ccc(/C(Cl)=C(\C=O)c2ccc([N+](=O)[O-])cc2)cc1 | 58.7 µM | > 100 µM | 11.4 µM | > 27.6 µM | > 74.6 µM | 7.24 µM | 8 µM | – | – | – | – | – | – | – | – |
| COC(C(O)c1ccc2c(c1)OCO2)P(=O)(c1ccccc1)c1ccccc1 (configuration not stated) | > 100 µM | – | > 100 µM | – | > 100 µM | > 100 µM | – | – | – | – | – | – | – | – | – |
| Cc1ccc2c3c(c(=O)[nH]c2c1)C1(C(C#N)=C(N)O3)c2cc(Br)ccc2-c2ccc(Br)cc21 | – | – | 4.76 µM | – | 17 µM | 10.1 µM | 23.7 µM | 5.95 µM | 3.78 µM | 2.22 µM | 1.67 µM | 4.23 µM | 2.92 µM | 4.5 µM | 1.68 µM |

— PubChem BioAssay (NCI)
